According to patent publication US8030547B2, “Gene coding for acetolactate synthase” (priority 2002, dated 2011):

Assays:
Assay type in all cases: cell-based, Oryza sativa var. Kinmaze
[1] = system: wild type (Kinmaze) rice culture cells; experiment: Growth of rice culture cells (relative wet weight of callus) in the presence of herbicide, wild type
Experimental: (§1) Approximately 1.5 g (wet weight) of the resistant mutant was transplanted into a 200 ml Erlenmeyer flask supplemented with 50 ml of a MS-2,4-D liquid medium and bispyribac-sodium at a certain concentration, followed by culturing at approximately 27° C. for a certain period. The wet weight of the callus was measured periodically. The relative amount of increase was determined based on the wet weight of the transplanted resistant mutant. In addition, the experiment was performed three times with different bispyribac-sodium concentrations, and the standard error was calculated. FIGS. 3 to 6 show the relation between changes in bispyribac-sodium concentration and the relative weight on day 8 or 12 in the resistant mutant. As a control, a similar experiment was conducted using the wild type (Kinmaze).
Also, in the case of using chlorsulfuron instead of bispyribac-sodium, the growth rates of the wild type and the resistant mutants were measured as described above. […] Further, FIGS. 9 to 12 show the relation between changes in chlorsulfuron concentration and relative weight on day 8 or 10 in the resistant mutants, that is, Rb line, Sr line, Ga line and Vg line.

[2] = system: Ga line resistant mutant rice culture cells; experiment: Growth of rice culture cells (relative wet weight of callus) in the presence of herbicide, Ga line
Experimental: (§2) Next, endosperm portions were removed from the callus induced on the medium, and then subculture was performed. Then, part of the obtained calli was sub-cultured, that is, cultured successively once per two weeks in a liquid medium (the composition is the same as in that shown in Table 3, but not supplemented with Gelrite) supplemented with 1 μM bispyribac-sodium (one type of PC herbicides). Two to 6 weeks later the culture cells started to wither. About 2 months later, a plurality of non-discolored cell masses that were thought to be conducting cell division were obtained from among culture cell populations most of which had died and became discolored brown. These cell masses were isolated and cultured, so that a plurality of cell lines that can proliferate in the presence of 2 μM bispyribac-sodium were obtained. […]
as §1, with “FIGS. 3 to 6 show the relation between changes in bispyribac-sodium concentration and the relative weight on day 8 or 12 in the resistant mutant. As a control, a similar experiment was conducted using the wild type (Kinmaze).” left out

[3] = system: Rb line resistant mutant rice culture cells; experiment: Growth of rice culture cells (relative wet weight of callus) in the presence of herbicide, Rb line
Experimental: as §2
as §1, with “FIGS. 3 to 6 show the relation between changes in bispyribac-sodium concentration and the relative weight on day 8 or 12 in the resistant mutant. As a control, a similar experiment was conducted using the wild type (Kinmaze).” left out

[4] = system: Vg line resistant mutant rice culture cells; experiment: Growth of rice culture cells (relative wet weight of callus) in the presence of herbicide, Vg line
Experimental: as §2
as §1, with “FIGS. 3 to 6 show the relation between changes in bispyribac-sodium concentration and the relative weight on day 8 or 12 in the resistant mutant. As a control, a similar experiment was conducted using the wild type (Kinmaze).” left out

[5] = system: Sr line resistant mutant rice culture cells; experiment: Growth of rice culture cells (relative wet weight of callus) in the presence of herbicide, Sr line
Experimental: as §2
as §1, with “FIGS. 3 to 6 show the relation between changes in bispyribac-sodium concentration and the relative weight on day 8 or 12 in the resistant mutant. As a control, a similar experiment was conducted using the wild type (Kinmaze).” left out

[6] = group supplemented with 1 nM herbicide, day 8 (bispyribac-sodium) or day 9 (chlorsulfuron)
[7] = group supplemented with 10 μM, day 8 or 12

## COc1cc(OC)nc(Oc2cccc(Oc3nc(OC)cc(OC)n3)c2C(=O)O)n1 [bispyribac-sodium]
[1]; [6]
  growth of the wild type (relative weight): not inhibited
[1]; group supplemented with 10 nM or more, day 8
  growth of the wild type (relative weight): inhibited
[2]; [7]
  growth of Ga line (relative weight): almost none of the growth
[3]; [7]
  growth of Rb line (relative weight): almost none of the growth
[4]; compared with wild type, day 8 or 12
  effect on the growth of Vg line: smaller than that in the wild type
[5]; [7]
  growth of Sr line (relative weight): almost none of the growth

## COc1nc(C)nc(NC(=O)NS(=O)(=O)c2ccccc2Cl)n1 [chlorsulfuron]
[1]; [6]
  growth of the wild type (relative weight): inhibited
[2]; day 8 or 10
  growth of Ga line on addition of herbicide (relative weight): not inhibited so much
[3]; day 8 or 10
  growth of Rb line on addition of herbicide (relative weight): not inhibited so much
[4]; day 8 or 10
  growth of Vg line on addition of herbicide (relative weight): not inhibited so much
[5]; day 8 or 10
  growth of Sr line on addition of herbicide (relative weight): not inhibited so much
